{
  "source": "paper PMC12406685",
  "about": "“Thiazole substitution of a labile amide bond—a new option toward antiplasmodial pantothenamide-mimics” (Antimicrobial Agents and Chemotherapy, 2025)",
  "test_system": "PfPanK",
  "test": "[14C]pantothenate phosphorylation assay in P. falciparum lysates (Somogyi reagent)",
  "type": "biochemical",
  "settings": "PfPanK versus HsPanK3 selectivity",
  "description": "Parasite lysates were prepared from saponin-isolated mature trophozoite-stage parasites as described by Saliba et al. ([14]), with modifications. Briefly, a culture with predominantly trophozoite stage parasites was thoroughly mixed with saponin (0.05% [wt/vol] final concentration) and centrifuged at 2,000 × g for 8 min at 4°C. The pelleted parasites were then transferred to a 1.5 mL tube and washed three times (16,000 × g, 1 min each time) with cold malaria saline (125 mM NaCl, 5 mM KCl, 25 mM HEPES, 20 mM glucose, 1 mM MgCl2, pH 7.1). Subsequently, washed saponin-isolated parasites were suspended in 1 mL of 10 mM Tris/Cl, pH 7.4, followed by trituration (10 times) through a SafetyGlide injection needle (25-gauge). The lysates were then centrifuged at 16,000 × g for 30 min at 4°C, and the supernatant was transferred to a new tube. The concentration of the lysates was then determined using the Bradford reagent.\nPhosphorylation of [^14C]pantothenate was determined using a combination of zinc sulphate (ZnSO4) and barium hydroxide (Ba(OH)2) (Somogyi reagent) as previously described ([78]). In the 125 min time course, each reaction (650 µL) contained a final concentration of 50 mM Tris-Cl (pH 7.4), 5 mM ATP, 5 mM MgCl2, 2 µM (0.1 µCi/mL) [^14C]pantothenate, and 60 µg of total parasite lysate. The compounds were added at their 10× antiplasmodial IC50 values or at various concentrations to generate dose–response curves. Mixtures were incubated at 37°C throughout the experiment, and reactions were initiated by the addition of the lysates. A reaction with identical components to the test reactions but lacking the parasite lysate was prepared to serve as a no-phosphorylation negative control, and a reaction with DMSO vehicle control (0.2% vol/vol) served as a positive control. At pre-determined time points, 50 µL of the reaction mixture was transferred in triplicate to wells of a 96-well filter plate with 0.2 µm hydrophilic polyvinylidene fluoride (PVDF) membrane filter (Corning), which had been pre-loaded with 50 µL of 150 mM Ba(OH)2. The reaction mixtures were thoroughly mixed with the Ba(OH)2 in the wells to precipitate the enzyme and terminate the phosphorylation reaction. After all reactions had been terminated, phosphorylated compounds in each well were precipitated by the addition of 50 µL of 150 mM ZnSO4 to generate the Somogyi reagent. The plate was then washed twice with deionized H2O and once with 95% (vol/vol) ethanol using a vacuum manifold to remove the non-phosphorylated [^14C]pantothenate and was subsequently dried overnight at 37°C in a non-humidified incubator. The following day, 30 µL of Microscint-O (PerkinElmer) was added to each well, and the plate was sealed on the top and bottom with TopSeal-A Plus sealing film (PerkinElmer). A Packard Microplate Scintillation and Luminescence Counter was used to measure the radioactivity in each well immediately after the plate had been sealed. To determine the total radioactivity in each phosphorylation assay, 50 µL of each reaction mixture was added to the wells of an OptiPlate-96 microplate (PerkinElmer) in triplicate and was then thoroughly mixed with 150 µL of Microscint-40 (PerkinElmer), and the radioactivity was measured in the same manner. Phosphorylation of [^14C]pantothenate, calculated as a percentage of the radioactivity measured in the test wells relative to the total radioactivity in the phosphorylation assay, was then plotted against the reaction time. Each data set was analyzed by linear regression, from which the phosphorylation rate of each reaction was then determined and expressed as a percentage of the phosphorylation rate of the DMSO-positive control reaction.",
  "data": [
    {"smiles": "CC(C)(CO)[C@@H](O)C(=O)NCc1csc(-c2ccccc2)n1", "note": "[Compound 2e]", "values": [
      {"measurement": "Fold by which IC50 at inhibiting PfPanK-mediated pantothenate phosphorylation is lower than Km observed for HsPanK3", "result": 120, "unit": "fold"}
    ]}
  ]
}
